Source: patent US12269902B2, “Peptide compounds and peptide conjugates for the treatment of cancer through receptor-mediated chemotherapy” (TRANSFERT PLUS, S.E.C., priority 2015, dated 2025)
Non-standard residues stand in square brackets, D forms with d. Residues, ends and D or L forms follow the SMILES beside them. *: point of attachment. X1 = CC(=O)O[C@@]12CO[C@@H]1C[C@H](O)[C@@]1(C)C(=O)[C@H](O)C3=C(C)[C@@H](OC(=O)[C@H](OC(=O)CCC(=O)*)[C@@H](NC(=O)OC(C)(C)C)c4ccccc4)C[C@@](O)([C@@H](OC(=O)c4ccccc4)[C@H]21)C3(C)C; Nle = CCCC[C@H](N)C(=O)O

Columns and labels:
[1] = tested on: ES-2 ovarian cancer cells; experiment: [3H]-Thymidine incorporation cell proliferation assay, ES-2; assay type: cell-based; conditions: ES-2 (Ovary)
Experimental: (§1) The effect of the Docetaxel-Katana peptide conjugate on various cell line proliferations was evaluated and compared to unconjugated Docetaxel (Table 4). IC50 values obtained for the Docetaxel-Katana peptide conjugate were very similar to those of Docetaxel in the cancer cells tested.
(§2) The phytochemical Curcumin, unconjugated and conjugated, was also tested on cancer cell proliferation (FIG. 28). Breast cancer cells (MDA-MB231) were incubated with increasing concentrations of KBC106 or curcumin. After 72 hrs, thymidine incorporation assay was performed to assess the anti-proliferative properties of both molecules. IC50 values were extracted from the anti-proliferative curves. […] Proliferation assay was also performed using different types of cancer cells (ovarian, breast, skin and colorectal cancer cells). IC50 values were calculated from the anti-proliferation curves. In all cases, the Curcumin conjugate (KBC106) had stronger anti-proliferative activity (9-100 fold) than unconjugated Curcumin, as shown in Table 6 below.
(§3) Cancer cells were cultured in 96-well white plates (Perkin Elmer). They were synchronized for 24 hours in serum-deprived medium. After incubation of cells with unconjugated drugs (docetaxel, cabazitaxel, doxorubicin) or with drug-Katana peptide conjugates for 2 or 3 days, all media was aspirated and cells were pulse-labeled for 4 hours at 37° C./[…]/5% CO2 with media containing 2.5 μCi/mL [methyl-3H] thymidine (Perkin Elmer). Cells were washed, fixed, and dried before addition of scintillation fluid (Microscint 0, Perkin Elmer). After 24 hours, cell-associated tritium was quantified by counting on a plate reader (TopCount, Perkin Elmer). Incorporated [3H] thymidine was plotted for each drug concentration.

[2] = tested on: MDA-MB-231 breast cancer cells; experiment: cells; conditions: Homo sapiens
Experimental: Breast cancer cells (MDA-MB231) were incubated with increasing concentrations of KBC106 or curcumin. After 72 hrs, thymidine incorporation assay was performed to assess the anti-proliferative properties of both molecules. IC50 values were extracted from the anti-proliferative curves.
as §2, with “curves.” for “curves. In all cases, the Curcumin conjugate (KBC106) had stronger anti-proliferative activity (9-100 fold) than unconjugated Curcumin, as shown in Table 6 below.”
as §3

[3] = tested on: SK-MEL-28 skin cancer cells; experiment: [3H]-Thymidine incorporation cell proliferation assay, SK-MEL-28; assay type: cell-based; conditions: Homo sapiens
Experimental: as §1, §2, §3

[4] = tested on: A-375 skin cancer cells; experiment: [3H]-Thymidine incorporation cell proliferation assay, A-375; assay type: cell-based; conditions: Homo sapiens
Experimental: as §1, §2, §3

[5] = tested on: HCC-1569 breast cancer cells; experiment: cells; assay type: cell-based; conditions: Homo sapiens, HCC1569; HCC-1569 (HER2+; Herceptin resistant); Table 6
Experimental: as §2, §3

[6] = tested on: HCC-1954 breast cancer cells; experiment: cells; assay type: cell-based; conditions: Homo sapiens, HCC1954; HCC-1954 (HER2+; Lapatinib resistant); Table 6
Experimental: as §2, §3

[7] = tested on: HT-29 colorectal cancer cells; experiment: cells; assay type: cell-based; conditions: Homo sapiens, Table 6
Experimental: as §2, §3

[8] = tested on: cancer cells; experiment: Apoptosis by fluorescence microscopy (alpha-tubulin, DAPI); assay type: cell-based; conditions: fluorescent microscopy
Experimental: In FIG. 30, it was further evaluated whether the Curcumin conjugate (KBC106) induces cancer cell apoptosis. Cancer cells were incubated with KBC106 and curcumin. First column, uptake for both molecules can be monitored by fluorescent microscopy. Higher accumulation of fluorescence was detected for KBC1006 indicating a better cell internalization for the conjugate. Curcumin accumulation was barely visible in these cancer cells. […] In the third column, cell nucleus was labelled with the fluorescent dye DAPI.

[9] = molecular target: P-gp (MDR1) (Homo sapiens, UniProt P08183); experiment: Drug accumulation in MDCK-MDR1 cells with or without Cyclosporin A; conditions: 50 nM, 1 hr, 37° C., CsA 10 μM
Chain of P-gp (MDR1) (P08183 whole entry): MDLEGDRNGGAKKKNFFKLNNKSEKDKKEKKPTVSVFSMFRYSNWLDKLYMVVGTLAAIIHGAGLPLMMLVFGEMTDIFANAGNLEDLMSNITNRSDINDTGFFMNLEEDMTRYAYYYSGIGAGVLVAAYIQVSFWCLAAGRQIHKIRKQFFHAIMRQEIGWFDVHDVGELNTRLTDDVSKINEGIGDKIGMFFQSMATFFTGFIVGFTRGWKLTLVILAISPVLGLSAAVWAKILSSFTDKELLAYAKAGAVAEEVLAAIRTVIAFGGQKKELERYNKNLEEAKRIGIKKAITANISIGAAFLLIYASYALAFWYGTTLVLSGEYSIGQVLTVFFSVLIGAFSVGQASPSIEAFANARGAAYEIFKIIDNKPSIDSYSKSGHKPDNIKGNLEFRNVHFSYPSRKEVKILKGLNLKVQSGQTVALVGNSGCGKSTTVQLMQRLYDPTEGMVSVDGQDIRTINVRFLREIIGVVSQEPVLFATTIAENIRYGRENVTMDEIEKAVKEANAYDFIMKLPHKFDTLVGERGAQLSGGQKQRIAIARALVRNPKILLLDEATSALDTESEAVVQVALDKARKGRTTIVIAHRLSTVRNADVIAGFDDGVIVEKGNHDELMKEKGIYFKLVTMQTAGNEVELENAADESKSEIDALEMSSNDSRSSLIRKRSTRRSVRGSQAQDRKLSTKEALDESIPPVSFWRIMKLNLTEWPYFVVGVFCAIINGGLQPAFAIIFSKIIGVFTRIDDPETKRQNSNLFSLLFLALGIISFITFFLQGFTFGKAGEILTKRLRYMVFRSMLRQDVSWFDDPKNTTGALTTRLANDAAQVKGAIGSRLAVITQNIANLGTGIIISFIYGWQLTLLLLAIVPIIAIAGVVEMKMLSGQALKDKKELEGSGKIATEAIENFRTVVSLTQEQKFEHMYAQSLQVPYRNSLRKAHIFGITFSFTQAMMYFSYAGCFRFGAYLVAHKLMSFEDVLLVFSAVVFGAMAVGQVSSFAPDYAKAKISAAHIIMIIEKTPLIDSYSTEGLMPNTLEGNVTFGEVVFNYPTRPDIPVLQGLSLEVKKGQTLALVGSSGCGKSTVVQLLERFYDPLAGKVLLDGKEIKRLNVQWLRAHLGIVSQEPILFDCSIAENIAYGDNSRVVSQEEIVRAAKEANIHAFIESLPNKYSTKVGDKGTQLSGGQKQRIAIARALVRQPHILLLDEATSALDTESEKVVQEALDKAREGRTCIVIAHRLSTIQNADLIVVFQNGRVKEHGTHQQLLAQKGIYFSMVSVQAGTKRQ
Experimental: 6A. […] 6B. MDCK-MDR1 cells were incubated with 50 nM of either [^14C]-Doxorubicin or [^125I]-Katana peptide-Doxorubicin conjugate (KBB106) for 1 hr at 37° C. in the presence or absence of CsA (10 μM). After the incubation, cells were washed and radioactivity accumulated in cells was quantified. The results were expressed in terms of uptake fmol/mg of protein.
In order to determine whether the anticancer drug-Katana-peptide conjugates could also be P-gp substrates, MDCK-transfected cells with human MDR1 were used (MDCK-MDR1).
Cells were washed three times with PBS and preincubated for 30 min at 37° C. in culture medium without serum with or without the P-gp inhibitor Cyclosporin A (10 μM). Radiolabelled molecules (50 nM) were then added for 60 min. The cells were rapidly washed three times with ice-cold PBS and then lysed in 500 µL of 0.1 M NaOH. The amount of radiolabelled molecules retained in the cells was counted by β-scintillation counting (Packard model 1900 TR). An aliquot of cell lysate was used in parallel to determine cellular protein concentration.

[10] = Tissue distribution of radiolabeled compounds in mice; conditions: iv bolus, equivalent dose of Docetaxel (Docetaxel 2.2, KBA105 5 mg/kg)
Experimental: CD-1 mice were injected with the radiolabeled conjugate at 5 mg/kg via iv bolus injections (21A) or […] of radiolabeled Docetaxel (21B). At the indicated times (1 h, 6 h, 24 h) mice were sacrificed and perfused with saline for 8 min. Tissues were then collected and radioactivity was measured. Results are expressed in terms of ng/g of tissue.
At the indicated times (1, 6 and 24 hours), whole body perfusion was performed for 8 min with saline at a flow rate of 8 ml/min after […] hours iv bolus injections.
After radiolabeling free iodine was remove. Mice were injected with Docetaxel-[^125I]-Katana peptide conjugate at 5 mg/kg. Plasma was collected at the indicated times. After 1, 2 and 24 hours some mice were perfused with saline, sacrificed and tissues were collected. Radioactivity in the plasma and tissues were measured in a radioactivity counter and results were calculated and expressed in terms of […] for the plasma or ng/g of tissues.

[11] = tested on: SKOV3 cancer cells; experiment: SKOV3 luciferase subcutaneous xenograft tumour model (Docetaxel, KBA-105); conditions: mice, Docetaxel 10 mg/kg/week, 3 treatments
Experimental: Mice were implanted in the flank with SKOV3 cancer cells. Tumor growth was monitored by luminescence using the Near Infrared imaging system from Carestream.
Results are expressed in terms of luminescence intensity as a function of post-treatment days.
To further evaluate the in vivo efficacy of the Katana-drug conjugate, SKOV3 cancer cells expressing luciferase were implanted in the mouse flank. […] Tumour imaging was performed on different days by injecting the luciferase substrate luciferin and by using the Xtreme imaging system from Carestream.
Luminescence was then quantified and plotted as a function of days after implantation (FIG. 23).
SKOV3 cancer cells (2.5×10^6 cells) expressing luciferase were implanted in the right flank of mice. Tumour growth was monitored using near infrared (NiR) imaging system from Carestream by injecting the luciferase substrate luciferin. […] Luminescence associated with tumour growth of SKOV3/Luc cancer cells was quantified as a function of post-treatment days with the instrument software.

[12] = tested on: MDA-MB231 breast cancer cells; experiment: MDA-MB231 luciferase breast subcutaneous tumors (Docetaxel, KBA106); assay type: in vivo, mice
Experimental: 27A. Mice were implanted in the flank with MDA-MB231 breast cancer cells expressing luciferase. Tumor growth by luminescence was visualized using an in vivo imaging system from Carestream. Mice were treated with vehicle, Docetaxel (15 mg/kg/week) or KBA106 (50 mg/kg/week). Initial luminescence intensity was subtracted. 27B. […] No value was available (N/A) for the mice treated with the vehicle since all mice were then sacrificed because the size of their tumors reached the endpoint limit. 27C. Tumor luminescence results were expressed in terms of percentage of progression on D74 post-treatment compared to initial tumor luminescence. In the Docetaxel group, the tumor luminescence increased by 100% whereas in the KBA106 treated group the luminescence decreased by 100%.
Residual tumor burden was assessed in Docetaxel and Docetaxel conjugate treated mice (FIG. 27). Mice were implanted in the flank with MDA-MB231 breast cancer cells expressing luciferase. Tumor growth by luminescence was visualized using an in vivo imaging system from Carestream. Mice were treated with vehicle, Docetaxel (15 mg/kg/week) or KBA106 (50 mg/kg/week).

[13] = free Docetaxel; Assessment report for Docetaxel Teva, European Medicines Agency; cited from earlier work
[14] = tested on: ovarian (SKOV3 and ES-2) cancer cells; experiment: Cell migration assay by xCELLigence biosensor system, ovarian cancer cells; assay type: cell-based; conditions: 2 hours incubation, 2 μM
Experimental: 15A. Cells were incubated for 2 hrs with increasing concentration of Doxorubicin or conjugated Doxorubicin (KBB106) and cell migration was performed. 15B. […] 15C. Progranulin (PGR), a sortilin ligand, also reversed the effect of the Doxorubicin conjugate (KBB106) on ovarian cancer cell (ES-2) migration.
This second cellular assay was also used to screen the different Katana-drug conjugates (FIG. 15). […] However, as shown in FIGS. 15B and 15C, when the cancer cells were incubated with conjugated Doxorubicin (KBB106) in the presence of a sortilin ligand (Neurotensin, Katana peptide or progranulin), the migratory effect of the Doxorubicin conjugate was reversed.
Experiments were carried out using the Real-Time Cell Analyser (RTCA) Dual-Plate (DP) Instrument, the xCELLigence system (Roche Diagnostics, QC). This system was used according to the instructions of the supplier. Then, cells (25 000 cells/well) were seeded in serum-free medium onto a CIM-Plates 16 (Roche diagnostics). […] After 30 min of adhesion, cell migration was monitored every 5 min for 8 h. The impedance value was measured by the RTCA DP Instrument and was expressed as an arbitrary unit called the Cell Index which reflecting the amount of migration-active cells. […]

COc1cc(/C=C/C(=O)CC(=O)/C=C/c2ccc(O)c(OC)c2)ccc1O [Curcumin, curcumin]
IC50 ([1]; Table 6): 14.4 µM | IC50 ([2]; MDA-MB-231, 72 h): 13.4 µM | IC50 ([3]; SK-MEL-28, Table 6): 12.5 µM | IC50 ([4]; A-375, Table 6): 20.9 µM | IC50 [5]: 14.8 µM | IC50 [6]: 12 µM | IC50 [7]: 51.3 µM | induction of apoptosis (nucleus fragmentation, DAPI) [8]: does not

CC(=O)O[C@@]12CO[C@@H]1C[C@H](O)[C@@]1(C)C(=O)[C@H](O)C3=C(C)[C@@H](OC(=O)[C@H](O)[C@@H](NC(=O)OC(C)(C)C)c4ccccc4)C[C@@](O)([C@@H](OC(=O)c4ccccc4)[C@H]21)C3(C)C [Docetaxel, docetaxel, reference compound]
IC50 ([1]; Table 4, 2 or 3 days): 0.0013 µM | IC50 ([2]; MDA-MB-231): 0.00068 µM | IC50 ([3]; SK-MEL-28 (Skin), Table 4, 2 or 3 days): 0.00069 µM | IC50 ([4]; A-375 (Skin), Table 4, 2 or 3 days): 0.00092 µM | increase of accumulation in the presence of cyclosporin A [9]: 2 fold | Area under the curve (AUC1-24) ([10]; Brain): 34 ng·h/mL | Area under the curve (AUC1-24) ([10]; Heart): 656 ng·h/mL | Area under the curve (AUC1-24) ([10]; Kidney): 1072 ng·h/mL | Area under the curve (AUC1-24) ([10]; Liver): 652 ng·h/mL | Area under the curve (AUC1-24) ([10]; Lung): 614 ng·h/mL | Area under the curve (AUC1-24) ([10]; Mammary): 823 ng·h/mL | Area under the curve (AUC1-24) ([10]; Ovary): 1523 ng·h/mL | Area under the curve (AUC1-24) ([10]; Spleen): 457 ng·h/mL | body weight loss [11]: ~20% | tumor luminescence increase compared to initial tumor luminescence ([12]; D74 post-treatment, Docetaxel 15 mg/kg/week): 100% | plasma half-life reported in the literature [13]: 1 h

CCCC[C@H](NC(=O)[C@H](CC(N)=O)NC(=O)[C@H](CCCNC(=N)N)NC(=O)[C@@H](NC(=O)CNC(=O)[C@H](C)NC(=O)[C@H](CCCCNC(=O)CCC(=O)O[C@@H](C(=O)O[C@H]1C[C@@]2(O)[C@@H](OC(=O)c3ccccc3)[C@@H]3[C@]4(OC(C)=O)CO[C@@H]4C[C@H](O)[C@@]3(C)C(=O)[C@H](O)C(=C1C)C2(C)C)[C@@H](NC(=O)OC(C)(C)C)c1ccccc1)NC(=O)[C@H](C)NC(=O)[C@H](CCCNC(=N)N)NC(=O)[C@@H](NC(=O)CNC(C)=O)C(C)C)C(C)C)C(=O)N[C@@H](Cc1ccccc1)C(=O)N[C@@H](CCCCNC(=O)CCC(=O)O[C@@H](C(=O)O[C@H]1C[C@@]2(O)[C@@H](OC(=O)c3ccccc3)[C@@H]3[C@]4(OC(C)=O)CO[C@@H]4C[C@H](O)[C@@]3(C)C(=O)[C@H](O)C(=C1C)C2(C)C)[C@@H](NC(=O)OC(C)(C)C)c1ccccc1)C(=O)N[C@@H](CO)C(=O)N[C@@H](CCC(=O)O)C(=O)N[C@@H](CO)C(=O)N[C@@H](Cc1ccc(O)cc1)C(=O)O [KBA-106, Acetyl-GVRAK(docetaxel)AGVRN(Nle)FK(docetaxel)SESY] (Ac-GVRAK(X1)AGVRN[Nle]FK(X1)SESY-OH; C-terminus assumed)
effect on cell migration [14]: almost completely abolished the cellular capacity of these cells to migrate | tumor luminescence decrease compared to initial tumor luminescence ([12]; D74 post-treatment, KBA106 50 mg/kg/week): 100% | residual tumor burden (remaining luminescence) ([12]; Day 74 post-treatment, KBA106 50 mg/kg/week): no luminescence was detectable
